Values joined by “and” are separate entries in the source; they are usually repeats but may differ in a detail not shown here. Equal values may be shown once.
Target: α-glucosidase
Test: α-glucosidase inhibitory activity assay
Assay type: biochemical
Conditions: alpha-glucosidase 1 U/ml, P-NPG substrate, 37° C., pH 6.8
Method: An assay to measure α-glucosidase inhibitory activity of extract and fractions was carried out according to the standard method with minor modification. In a 96-well plate, reaction mixture containing 50 μl phosphate buffer (100 mM, pH=6. 8), 10 μl alpha-glucosidase (1 U/ml), and 20 μl of varying concentrations of extract and fractions (0.1, 0.2, 0.3, 0.4, and 0.5 mg/ml) was preincubated at 37° C. for 15 min. Then, 20 μl P-NPG (5 mM) were added as a substrate and incubated further at 37° C. for 20 min. The reaction was stopped by adding 50 μl Na2 CO3 (0.1 M). The absorbance of the released p-nitrophenol was measured at 405 nm using Multiplate Reader. Acarbose at various concentrations (0.1-0.5 mg/ml) was included as a standard. Without test substance was set up in parallel as a control and each experiment was performed in triplicates. The results were expressed as percentage inhibition, which was calculated using the formula,
Inhibitory activity (%)=(1−As/Ac)×100 • where, As is the absorbance in the presence of test substance and Ac is the absorbance of control.

## O=C(O[C@@H]1Cc2c(O)cc(O)cc2O[C@@H]1c1cc(O)c(O)c(O)c1)c1cc(O)c(O)c(O)c1 [EGCG, epigallocatechin gallate]
  IC50 values of α-glucosidase: 138 µg/mL and 138.6 µg/mL

Reference: patent US20250152651A1, “COMPOSITIONS AND METHODS FOR EXTRACTING COMPOUNDS” (Unicity Properties, Inc., priority 2023, published 2025)
